Laboratory results: paper PMC11726670, “Impact of Linker Composition on VHL PROTAC Cell Permeability” (Journal of Medicinal Chemistry, 2024)
≈ marks a conversion by molar mass, not a printed value. Where two headings read alike, the source gives them in different places.

Assays:
in vitro = test: in vitro
Method: Stock solutions of the controls and of 1–9 were prepared in DMSO at a concentration of 10 mM, then they were further diluted with PBS (pH 7.4) to a final concentration of 10 μM. Five μL of a lecithin/dodecane mixture and 300 μL of PBS (pH 7.4) solution were pipetted into each acceptor plate well, followed by addition of 300 μL of the solutions of the controls or 1–9 to each well of the donor plate. The acceptor plate was placed into the donor plate followed by incubation at 25 °C, 60 rpm for 16 h.[31] After incubation, aliquots of 50 μL from each well of the acceptor and donor plates are transferred into a 96-well plate and 200 μL of acetonitrile was added to each well. Samples were centrifuged for 20 min and compound concentrations were determined by LC/MS/MS (LC system: Shimadzu; Triple Quad).

[1] = chromatographic Log D at pH 7.5; type: physicochemical
Excerpt: The chromatographic lipophilicities of the nine PROTACs were therefore determined to understand to what extent the cell permeability differences may originate from lipophilicity.

physchem = conditions: PBS, pH 6.5, aqueous buffer, kinetic from dmso stock
Excerpt: Before determining the cell permeability of PROTACs 1–8 we assessed their aqueous solubility.

[2] = pKa determined by photometry; type: physicochemical
Method: Both compounds were therefore treated as being mainly uncharged in the subsequent analyses, and the uncharged form of 7 was used in the NMR studies of its conformational ensemble in chloroform.
The pKa of 7 was determined by photometry as reported previously.[57]

ERK5 = test system: ERK5; parameters: method as in PMID 33488971; conditions: previously reported PROTAC; read-out: IC50 for binding to ERK5; cited from earlier work
[3] = PBS at pH 6.5; cited from earlier work
VHL = VHL (Homo sapiens, UniProt P40337); test: cell-based VHL binding assay (NanoBRET, live mode); conditions: classified by in cellulo/in vitro ratio
Chain of VHL (P40337 whole entry): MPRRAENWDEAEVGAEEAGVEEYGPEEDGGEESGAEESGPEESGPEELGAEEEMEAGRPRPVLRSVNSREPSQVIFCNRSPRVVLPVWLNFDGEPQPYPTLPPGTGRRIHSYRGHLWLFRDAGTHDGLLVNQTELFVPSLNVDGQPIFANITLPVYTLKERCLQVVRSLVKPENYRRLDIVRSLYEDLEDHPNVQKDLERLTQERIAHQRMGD
Method: IC50 values were calculated using a four-parameter fit, with a commercial software package (Genedata Screener, Switzerland).

[4] = pH 7.5, chromatographic lipophilicity, pH 7.5, read-out: LogD (pH 7.5)
[5] = pH 7.5, chromatographic, supplement, read-out: LogD, pH 7.50

Structure (SMILES) | PAMPA, mean (LogPe, cm/s) (in vitro; 16 h, 10 μM) | PAMPA Log[Pe (cm/s)] (in vitro; 16 h, 10 μM, pH 7.4) | chromatographic logD [1, 4] | chromatographic logD [1, 5] | solubility (physchem) [µM] | solubility kinetic (physchem) [µM] | Papp at 16 h, 10 μM (in vitro; PAMPA, pH 7.4) [×10⁻⁶ cm/s] | improvement in PAMPA permeability (in vitro; 16 h, 10 μM) [fold] | uncharged fraction ([2]; at pH 7.4, from determined pKa) [%] | partially charged fraction ([2]; at physiological pH) [%] | pKa ([2]; tertiary amine of linker, photometry) | cell permeability class (in words) (VHL) | higher PAMPA permeability (in vitro) | IC50 (ERK5) [nM] | kinetic solubility [3] [µM]
Cc1ncsc1-c1ccc(CNC(=O)[C@@H]2C[C@@H](O)CN2C(=O)[C@@H](NC(=O)CCOCCNC(=O)COc2cnc3c(C4CCN(C(=O)c5ccc(OC(F)(F)F)cc5)CC4)ncnc3c2)C(C)(C)C)cc1 [PROTAC 3, 3-Methyl-N-[3-(2-{2-[(4-{1-[4-(trifluoromethoxy)benzoyl]piperidin-4-yl}pyrido[3,2-d]pyrimidin-7-yl)oxy]acetamido}ethoxy)propanoyl]-L-valyl-(4R)-4-hydroxy-N-[4-(4-methyl-1,3-thiazol-5-yl)benzyl]-L-prolinamide] | -6,21 cm/s | –6.21 ± 0.046 cm/s | 2.7 | 2.66 | 17 (≈ 17.1 µg/mL) | 10 to 20 (≈ 10 to 20.1 µg/mL) |  |  |  |  |  |  |  |  | 
CN(Cc1cnc2nc(N)nc(N)c2n1)c1ccc(C(=O)N[C@@H](CCC(=O)O)C(=O)O)cc1 [Methotrexate, reference compound] |  |  |  |  |  |  | 0.00427 |  |  |  |  |  |  |  | 
Cc1ncsc1-c1ccc(CNC(=O)[C@@H]2C[C@@H](O)CN2C(=O)[C@@H](NC(=O)Cc2ccc(OCCOc3cnc4c(C5CCN(C(=O)c6ccc(OC(F)(F)F)cc6)CC5)ncnc4c3)cc2)C(C)(C)C)cc1 [PROTAC 5, 3-Methyl-N-[(4-{2-[(4-{1-[4-(trifluoromethoxy)benzoyl]piperidin-4-yl}pyrido[3,2-d]pyrimidin-7-yl)oxy]ethoxy}phenyl)acetyl]-L-valyl-(4R)-4-hydroxy-N-[4-(4-methyl-1,3-thiazol-5-yl)benzyl]-L-prolinamide] | <-7,56 cm/s | <−7.56 ± 0.30 cm/s | 3.2 | 3.25 | 0.36 (≈ 0.363 µg/mL) | < 1 |  |  |  |  |  |  |  |  | 
Cc1ncsc1-c1ccc(CNC(=O)[C@@H]2C[C@@H](O)CN2C(=O)[C@@H](NC(=O)COCCOCCNC(=O)COc2cnc3c(C4CCN(C(=O)c5ccc(OC(F)(F)F)cc5)CC4)ncnc3c2)C(C)(C)C)cc1 [PROTAC 9] | -6,3 cm/s | –6.30 ± 0.074 cm/s | 2.7 | 2.68 |  |  |  |  |  |  |  | high |  | 1230 | 6.8 (≈ 7.03 µg/mL)
Cc1ncsc1-c1ccc(CNC(=O)[C@@H]2C[C@@H](O)CN2C(=O)[C@@H](NC(=O)COCc2cn(CCOc3cnc4c(C5CCN(C(=O)c6ccc(OC(F)(F)F)cc6)CC5)ncnc4c3)nn2)C(C)(C)C)cc1 [PROTAC 4, 3-Methyl-N-{[(1-{2-[(4-{1-[4-(trifluoromethoxy)benzoyl]piperidin-4-yl}pyrido[3,2-d]pyrimidin-7-yl)oxy]ethyl}-1H-1,2,3-triazol-4-yl)methoxy]acetyl}-L-valyl-(4R)-4-hydroxy-N-[4-(4-methyl-1,3-thiazol-5-yl)benzyl]-L-prolinamide] | <-7,94 cm/s | <−7.94 ± 0.20 cm/s | 2.7 |  | 12.1 (≈ 12.3 µg/mL) | 10 to 20 (≈ 10.1 to 20.3 µg/mL) |  |  |  |  |  |  |  |  | 
Cc1ncsc1-c1ccc(CNC(=O)[C@@H]2C[C@@H](O)CN2C(=O)[C@@H](NC(=O)Cc2ccc(OCCOc3cnc4c(C5CCN(C(=O)c6ccc(OC(F)(F)F)cc6)CC5)ncnc4c3)cn2)C(C)(C)C)cc1 [PROTAC 6, 3-Methyl-N-[(5-{2-[(4-{1-[4-(trifluoromethoxy)benzoyl]piperidin-4-yl}pyrido[3,2-d]pyrimidin-7-yl)oxy]ethoxy}pyridin-2-yl)acetyl]-L-valyl-(4R)-4-hydroxy-N-[4-(4-methyl-1,3-thiazol-5-yl)benzyl]-L-prolinamide] | -7,28 cm/s | –7.28 ± 0.035 cm/s | 3 | 2.97 | 0.52 (≈ 0.525 µg/mL) | < 1 |  |  |  |  |  |  |  |  | 

Second part, led by results:

PAMPA, mean (LogPe, cm/s) (in vitro; 16 h, 10 μM) | PAMPA Log[Pe (cm/s)] (in vitro; 16 h, 10 μM, pH 7.4) | chromatographic logD [1, 4] | chromatographic logD [1, 5] | solubility (physchem) [µM] | solubility kinetic (physchem) [µM] | Papp at 16 h, 10 μM (in vitro; PAMPA, pH 7.4) [×10⁻⁶ cm/s] | improvement in PAMPA permeability (in vitro; 16 h, 10 μM) [fold] | uncharged fraction ([2]; at pH 7.4, from determined pKa) [%] | partially charged fraction ([2]; at physiological pH) [%] | pKa ([2]; tertiary amine of linker, photometry) | cell permeability class (in words) (VHL) | higher PAMPA permeability (in vitro) | Structure (SMILES) | IC50 (ERK5) [nM] | kinetic solubility [3] [µM]
-6,9 cm/s | –6.90 ± 0.061 cm/s | 3.6 | 3.64 |  |  |  |  |  |  |  |  |  | Cc1ncsc1-c1ccc(CNC(=O)[C@@H]2C[C@@H](O)CN2C(=O)[C@@H](NC(=O)CN2CCC(CCCOc3cnc4c(C5CCN(C(=O)c6ccc(OC(F)(F)F)cc6)CC5)ncnc4c3)CC2)C(C)(C)C)cc1 [PROTAC 8, 3-Methyl-N-[(4-{3-[(4-{1-[4-(trifluoromethoxy)benzoyl]piperidin-4-yl}pyrido[3,2-d]pyrimidin-7-yl)oxy]propyl}piperidin-1-yl)acetyl]-L-valyl-(4R)-4-hydroxy-N-[4-(4-methyl-1,3-thiazol-5-yl)benzyl]-L-prolinamide] |  | 
-8,29 cm/s | –8.29 ± 0.023 cm/s | 3.8 | 3.81 | < 0.1 | < 1 |  |  |  |  |  |  |  | Cc1ncsc1-c1ccc(CNC(=O)[C@@H]2C[C@@H](O)CN2C(=O)[C@@H](NC(=O)CCCCCCCCOc2cnc3c(C4CCN(C(=O)c5ccc(OC(F)(F)F)cc5)CC4)ncnc3c2)C(C)(C)C)cc1 [PROTAC 1, 3-Methyl-N-{9-[(4-{1-[4-(trifluoromethoxy)benzoyl]piperidin-4-yl}pyrido[3,2-d]pyrimidin-7-yl)oxy]nonanoyl}-L-valyl-(4R)-4-hydroxy-N-[4-(4-methyl-1,3-thiazol-5-yl)benzyl]-L-prolinamide] |  | 
-6,67 cm/s | –6.67 ± 0.017 cm/s | 3.7 | 3.74 |  |  |  | 40 | 76 | < 25 | 6.9 |  |  | Cc1ncsc1-c1ccc(CNC(=O)[C@@H]2C[C@@H](O)CN2C(=O)[C@@H](NC(=O)CN(C)CCCCCCOc2cnc3c(C4CCN(C(=O)c5ccc(OC(F)(F)F)cc5)CC4)ncnc3c2)C(C)(C)C)cc1 [PROTAC 7, N-Methyl-N-{6-[(4-{1-[4-(trifluoromethoxy)benzoyl]piperidin-4-yl}pyrido[3,2-d]pyrimidin-7-yl)oxy]hexyl}glycyl-3-methyl-L-valyl-(4R)-4-hydroxy-N-[4-(4-methyl-1,3-thiazol-5-yl)benzyl]-L-prolinamide] |  | 
-5,42 cm/s | –5.42 ± 0.035 cm/s | 2.9 | 2.89 | 0.64 (≈ 0.634 µg/mL) | < 1 |  |  |  |  |  |  | ~3 orders of magnitude | Cc1ncsc1-c1ccc(CNC(=O)[C@@H]2C[C@@H](O)CN2C(=O)[C@@H](NC(=O)CCOCCOCCOc2cnc3c(C4CCN(C(=O)c5ccc(OC(F)(F)F)cc5)CC4)ncnc3c2)C(C)(C)C)cc1 [PROTAC 2, 3-Methyl-N-[3-(2-{2-[(4-{1-[4-(trifluoromethoxy)benzoyl]piperidin-4-yl}pyrido[3,2-d]pyrimidin-7-yl)oxy]ethoxy}ethoxy)propanoyl]-L-valyl-(4R)-4-hydroxy-N-[4-(4-methyl-1,3-thiazol-5-yl)benzyl]-L-prolinamide] |  | 
